In patent US20040018151A1, “Use of anandamide/cannabinoid receptor/acceptor agonists in als screening and treatment methods” (priority 2002, published 2004):

What was measured:
CB1 cannabinoid receptor = CB1 cannabinoid receptor (Homo sapiens, UniProt P21554); settings: background statement; cited from earlier work
[1] = system: mouse primary spinal cord cultures; assay: TBH oxidative damage in mixed spinal cord cultures (LDH release)
[2] = system: hSOD1^G93A mice (ALS mice); assay: Rotarod endurance (disease progression) in hSOD1^G93A mice; type: in vivo; settings: for Increase of A50% (age at which endurance declined to 50%) per 10 mg/kg of THC; A.(dose) estimate: nonlinear mixed effects model, rotarod; for Days from 9 to 1 min / Days to 50% endurance: prediction based on model
Experimental: (§1) hSOD1^G93A mice (ALS mice) were administered Δ^9-THC (5 and 10 mg/kg body weight) or vehicle beginning at 60 days of age, i.e., prior to onset of disease signs. The earliest clinical signs of disease observed were tremors and shaking of their limbs when mice were suspended briefly in the air by their tails. These signs were never seen in non-transgenic littermates, but were always seen in hSOD^G93A mice after 75 days. In a subsequent set of experiments, mice were administered 20 mg/kg Δ^9-THC beginning on day 75 when tremors were first observed, i.e., after onset of disease signs. Mice were evaluated on a rotarod to follow disease progression.
In order to assess the effect of Δ^9-THC on disease progression, a logistic response curve was fit to the endurance time for each mouse using a nonlinear mixed effects model. For these experiments, each mouse was assessed on the rotarod at 5 and 10 rpm. […] A50% increased 3.3 days (±1.1 day) per 10 mg/kg of THC (2-sided p=0.003). In other words, disease progression as assessed by rotarod performance was delayed 3.3 days in the 10 mg/kg and 6.6 days in the 20 mg/kg group as compared to the vehicle treated animals. This represents a 3% increase in motor performance endurance in the 10 mg/kg group and a 6% increase in the 20 mg/kg group. Note that the increase in the 20 mg/kg group was not affected by the delay in initiation of treatment.
Animals were assessed later in the disease by testing them at the slower rotarod speed (5 rpm). In the data analysis, A50% increased 6.5 days (±0.4 day) when changing from 10 rpm to 5 rpm. However, the rate of decline increased by a factor of 2 in going from 10 rpm to 5 rpm. This rate of decline can also be understood by expressing it as number of days to decline from 9 minutes to 1-minute endurance, based on the fitting equation. At 10 rpm, it took 17.1 (±1.76) days to decline from 9 to 1 minute vs. 8.55 (±0.88) days at 5 rpm. […] FIG. 1a. Δ^9-THC delays progression of disease in hSOD1^G93A mice. Motor function was tested weekly on the rotarod at 10 and 5 rpm. The decline in endurance over time for each animal at 10 rpm is shown in (a). Mouse numbers 1-13 correspond to vehicle treated animals, numbers 1001-1008 correspond to the 10 mg/kg Δ^9-THC treatment group, and 2001-2009 correspond to the 20 mg/kg Δ^9-THC treatment group.
FIG. 1b Logistic response curves showing declines based on fitting a logistic model to observed data. Solid curves are tests at 10 rpm, dashed curves for 5 rpm. The three curves for each rpm are for doses of 0 (vehicle, blue), 10 (mg/kg Δ^9-THC, green) and 20 (mg/kg Δ^9-THC, red). Parameters for curves are based on a nonlinear mixed effects model given by Time=10/(1+exp((Age-A)/B)).

[3] = system: hSOD1^G93A mice (ALS mice); assay: Survival of hSOD1^G93A mice; type: in vivo
Experimental: as §1
In these experiments, the treatment effect was to slow the progression of disease (FIG. 1b). Furthermore, treatment with Δ^9-THC improved survival. […] Treatment with 10 mg/ kg Δ^9-THC extended mean survival from 125.9±1.6 days (vehicle, n=15) to 131.8±2.4 days (Δ^9-THC, n=8, p<0.05)(FIG. 2a, c). This represents a […] increase in survival in the 10 mg/ kg Δ^9-THC-treated group. At a (delayed) dose of 20 mg/kg the increase in mean survival was 6.4 days (5.1%).
FIG. 2. Δ^9-THC extends survival in hSOD1^G93A mice. Cumulative survival in hSOD1^G93A mice treated with 10 mg/kg Δ^9-THC (a) or 20 mg/kg Δ^9-THC (b). Mortality of hSOD1^G93A mice treated with Δ^9-THC or vehicle (c).

[4] = system: hSOD1^G93A mice (ALS mice); assay: Behaviour and body weight of treated hSOD1^G93A mice; type: in vivo
Experimental: as §1

[5] = system: primary neuronal cultures prepared from mouse spinal cord; assay: Kainate excitotoxicity in spinal cord neuronal cultures; type: cell-based; settings: previously observed
ALS patients = assay: Open label crossover escalating dose study of Marinol in ALS patients; type: in vivo, humans
rodents = assay: Motor toxicity in rodents; type: in vivo; settings: intraperitoneally
Experimental: For THC the effective dose range should be 10 mg-70 mg/kg/day intraperitoneally in rodents. Motor toxicity is seen at 84 mg/kg/day. An estimate of effective dose range in rodents can be obtained from comparison to other measures of bioactivity of these compounds, e.g. in analgesia and/or anticonvulsant activity. […] However, other routes of administration may include intravenous, inhaled or sub-lingual, formulations such as in a patch or a spray, whereby the doses would most likely be different (e.g. 100 mg/day in a patch) in both rodents and humans.

[6] = system: primary neuronal cultures prepared from mouse spinal cord; settings: Abood et al, Neurosci Lett 309:197-201, 2001; cited from earlier work
CB1 = CB1 (Homo sapiens, UniProt P21554); settings: background statement; cited from earlier work
Sequence of CB1 (P21554 whole entry): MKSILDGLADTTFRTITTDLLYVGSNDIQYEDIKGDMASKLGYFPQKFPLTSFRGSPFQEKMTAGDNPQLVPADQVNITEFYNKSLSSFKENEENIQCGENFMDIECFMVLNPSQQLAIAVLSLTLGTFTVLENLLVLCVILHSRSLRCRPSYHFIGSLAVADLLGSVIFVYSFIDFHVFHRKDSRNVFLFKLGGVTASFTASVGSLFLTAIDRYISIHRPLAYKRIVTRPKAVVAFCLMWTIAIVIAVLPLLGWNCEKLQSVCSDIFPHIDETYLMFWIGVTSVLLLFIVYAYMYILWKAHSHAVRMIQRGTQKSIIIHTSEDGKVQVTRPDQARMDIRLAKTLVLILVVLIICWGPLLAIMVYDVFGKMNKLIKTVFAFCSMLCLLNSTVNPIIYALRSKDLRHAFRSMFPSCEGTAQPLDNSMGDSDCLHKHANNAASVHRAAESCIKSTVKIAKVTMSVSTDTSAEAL

[7] = rpm 10, dose 10 as printed (r11)

Sequence of CB1 cannabinoid receptor (P21554 whole entry): as above

CCCCCCC(C)(C)c1cc(O)c2c(c1)OC(C)(C)[C@@H]1CC=C(CO)C[C@@H]21 [HU-210]
Activity at central (CB1) receptor (CB1 cannabinoid receptor): retains activity at central (CB1)

CCCc1cc(O)c2c(c1)OC(C)(C)[C@@H]1CCC(C)=C[C@@H]21 [Propyl-THC]
Agonist potency/activity relative to THC (CB1 cannabinoid receptor): less agonist activity than THC

CCCCCc1cc(O)c2c(c1)OC(C)(C)C1CCC(CO)=CC21 (stereo not shown) [11-hydroxy-THC]
Agonist potency/activity relative to THC (CB1 cannabinoid receptor): more active than its parent

Cc1c(C(=O)NN2CCCCC2)nn(-c2ccc(Cl)cc2Cl)c1-c1ccc(Cl)cc1 [SR141716A]
Block of the antioxidant effect of Δ^9-THC ([1]; 1 μM SR141716A plus 0.5 μM Δ^9-THC, TBH): not blocked

CCCCCc1cc(O)c2c(c1)OC(C)(C)[C@@H]1CCC(C)=C[C@@H]21 [Δ^9-THC, delta-9-tetrahydrocannabinol]
Delay of disease progression as assessed by rotarod performance vs vehicle ([2]; 10 mg/kg): 3.3 days
Increase in motor performance endurance ([2]; 10 mg/kg): 3%
Increase in motor performance endurance ([2]; 20 mg/kg): 6%
Delay of disease progression as assessed by rotarod performance vs vehicle ([2]; 20 mg/kg, from day 75): 6.6 days
Increase of A50% (age at which endurance declined to 50%) per 10 mg/kg of THC; A.(dose) estimate [2]: 3.29 days
Increase of A50% (age at which endurance declined to 50%) per 10 mg/kg of THC; A.(dose) estimate ([2]; listed as THC): 3.3 days
Days from 9 to 1 min ([2]; rpm 5, dose 10): 8.55 days
Days to 50% endurance ([2]; rpm 5, dose 10): 109.8 days
Days from 9 to 1 min ([2]; rpm 5, dose 20): 8.55 days
Days to 50% endurance ([2]; rpm 5, dose 20): 113.1 days
Days from 9 to 1 min ([2]; rpm 10, dose 10 (r10)): 17.10 days
Days to 50% endurance ([2]; rpm 10, dose 10 (r10)): 103.3 days
Days from 9 to 1 min [2, 7]: 17.10 days
Days to 50% endurance [2, 7]: 106.6 days
Survival ([3]; 5 mg/kg): trend towards increased survival
Mean survival ([3]; 10 mg/kg, n=8, vehicle 125.9±1.6 days): 131.8 ± 2.4 days
Weights, difference between treatment groups ([4]; 5, 10, 20 mg/kg vs vehicle): no significant difference in weights
Overt behavioral changes ([4]; any of the doses given (5, 10, 20 mg/kg)): No overt behavioral changes
Protection of spinal cord neurons against direct excitotoxin (kainate) exposure, compared with NBQX [5]: as effective as the anti-excitotoxic compound NBQX
Patients showing reduction in rate of decline of ALSFRS (ALS patients; 3 month trial period): 11 of the 19
Serious adverse events (ALS patients; 25 patients treated, one death unrelated to drug effect): no other serious adverse events
Symptomatic benefits (ALS patients; ALS patients while taking Marinol): Symptomatic benefits were seen in insomnia, appetite, fasciculations and spasticity
Tolerability (ALS patients; ALS patients, oral, escalating dose 2.5-10 mg, 3 months): well tolerated
Tolerability (ALS patients; humans, 10 mg/day orally): well tolerated
Average rate of decline (ALSFRS) (ALS patients; when patients were taking drug): 27%
Dose at which motor toxicity is seen (rodents): 84 mg/kg/day
Kainate toxicity [6]: effectively reduce kainate toxicity
Cytotoxicity ([1]; 200 μM TBH for 5 hours in the presence of 0.5 μM Δ^9-THC, TBH alone 74 (±14) %, n=4): 28 (±8) %

CCCCCCC(C)(C)c1cc(O)c2c(c1)OC(C)(C)[C@H]1CC=C(CO)C[C@H]21 [HU-211, dexanabinol]
Activity at central (CB1) receptor (CB1 cannabinoid receptor): inactive

CCCCCCCC/C=C\CCCCCCCC(N)=O [Oleamide]
Binding to CB1 (CB1): does not bind CB1
